Consider 13 compounds from patent US20050119253A1, “Method of treating mental disorders using of D4 and 5-HT2A antagonists, inverse agonists or partial agonists” (priority 2003, published 2005).

Where two headings read alike, the source gives them in different places. Bounds are passed on as bounds.

Format in all cases: binding
One assay has as its target T1, Alpha1A (Homo sapiens, UniProt P35348).
T1 sequence (P35348 1-466): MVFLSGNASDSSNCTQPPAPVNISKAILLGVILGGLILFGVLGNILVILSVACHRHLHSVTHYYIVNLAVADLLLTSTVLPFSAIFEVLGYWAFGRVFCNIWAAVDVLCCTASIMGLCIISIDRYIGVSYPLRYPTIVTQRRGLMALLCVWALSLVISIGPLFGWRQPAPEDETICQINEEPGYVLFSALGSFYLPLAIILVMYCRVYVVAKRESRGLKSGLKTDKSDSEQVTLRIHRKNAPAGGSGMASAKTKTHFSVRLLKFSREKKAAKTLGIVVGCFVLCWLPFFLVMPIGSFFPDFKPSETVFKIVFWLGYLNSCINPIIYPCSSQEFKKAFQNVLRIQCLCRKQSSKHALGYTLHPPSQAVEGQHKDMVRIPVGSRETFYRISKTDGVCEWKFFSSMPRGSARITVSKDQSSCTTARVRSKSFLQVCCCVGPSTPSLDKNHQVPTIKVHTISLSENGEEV
In words: pKi of test compounds, adrenergic receptor Alpha1A.

A further assay addresses D3 (Homo sapiens, UniProt P35462). In words: pKi of test compounds, D3 receptor.
A further assay has as its target D2 (Homo sapiens, UniProt P14416). In words: pKi of test compounds, D2 receptor.
The target of the next assay is 5-HT2A receptor (Homo sapiens, UniProt P28223). In words: pKi of test compounds, 5-HT2A receptor.
Sequence of 5-HT2A receptor (P28223 whole entry): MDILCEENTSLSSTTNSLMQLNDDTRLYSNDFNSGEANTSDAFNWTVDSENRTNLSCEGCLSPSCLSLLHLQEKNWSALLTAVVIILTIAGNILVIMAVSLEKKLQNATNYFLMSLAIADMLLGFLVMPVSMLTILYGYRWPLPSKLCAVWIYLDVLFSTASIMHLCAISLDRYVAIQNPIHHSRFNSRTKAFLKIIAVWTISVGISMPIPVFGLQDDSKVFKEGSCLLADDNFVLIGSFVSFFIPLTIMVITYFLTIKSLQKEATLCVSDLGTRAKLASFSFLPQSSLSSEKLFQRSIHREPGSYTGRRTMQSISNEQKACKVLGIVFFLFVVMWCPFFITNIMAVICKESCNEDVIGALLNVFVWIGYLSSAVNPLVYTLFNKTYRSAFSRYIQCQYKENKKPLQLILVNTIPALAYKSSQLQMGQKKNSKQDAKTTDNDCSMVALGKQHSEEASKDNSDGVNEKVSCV
The next assay has as its target D1 (Homo sapiens, UniProt P21728). In words: pKi of test compounds, D1 receptor.
The next assay has as its target T2, 5HT2C (Homo sapiens, UniProt P28335).
T2 sequence (P28335 33-458): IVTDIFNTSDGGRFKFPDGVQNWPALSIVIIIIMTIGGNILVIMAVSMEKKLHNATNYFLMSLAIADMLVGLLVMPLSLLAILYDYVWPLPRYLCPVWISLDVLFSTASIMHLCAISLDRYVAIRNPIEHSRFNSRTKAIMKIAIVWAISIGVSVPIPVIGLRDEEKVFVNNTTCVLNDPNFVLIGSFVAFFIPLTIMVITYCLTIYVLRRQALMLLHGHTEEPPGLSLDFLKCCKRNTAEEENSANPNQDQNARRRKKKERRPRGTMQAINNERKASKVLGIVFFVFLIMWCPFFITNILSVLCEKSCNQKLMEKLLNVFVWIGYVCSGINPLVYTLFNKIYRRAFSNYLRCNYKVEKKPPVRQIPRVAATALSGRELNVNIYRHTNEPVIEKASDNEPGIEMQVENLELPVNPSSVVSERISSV
In words: pKi of test compounds, 5HT2C receptor.

In a further assay the target is T3, 5HT1A (Homo sapiens, UniProt P08908).
T3 sequence (P08908 1-422): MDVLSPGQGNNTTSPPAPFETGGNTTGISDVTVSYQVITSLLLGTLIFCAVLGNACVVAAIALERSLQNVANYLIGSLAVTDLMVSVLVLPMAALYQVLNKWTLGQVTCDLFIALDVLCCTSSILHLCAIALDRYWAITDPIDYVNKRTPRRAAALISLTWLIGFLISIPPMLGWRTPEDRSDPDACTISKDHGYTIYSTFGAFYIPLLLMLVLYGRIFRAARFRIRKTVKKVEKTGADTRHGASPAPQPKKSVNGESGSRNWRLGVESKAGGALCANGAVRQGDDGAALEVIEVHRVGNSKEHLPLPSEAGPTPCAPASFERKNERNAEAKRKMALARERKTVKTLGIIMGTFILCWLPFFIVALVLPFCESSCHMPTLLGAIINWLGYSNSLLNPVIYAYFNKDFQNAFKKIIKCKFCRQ
In words: pKi of test compounds, 5HT1A receptor.

The target in a further assay is T4, Alpha2A (Homo sapiens, UniProt P08913).
T4 sequence (P08913 1-465): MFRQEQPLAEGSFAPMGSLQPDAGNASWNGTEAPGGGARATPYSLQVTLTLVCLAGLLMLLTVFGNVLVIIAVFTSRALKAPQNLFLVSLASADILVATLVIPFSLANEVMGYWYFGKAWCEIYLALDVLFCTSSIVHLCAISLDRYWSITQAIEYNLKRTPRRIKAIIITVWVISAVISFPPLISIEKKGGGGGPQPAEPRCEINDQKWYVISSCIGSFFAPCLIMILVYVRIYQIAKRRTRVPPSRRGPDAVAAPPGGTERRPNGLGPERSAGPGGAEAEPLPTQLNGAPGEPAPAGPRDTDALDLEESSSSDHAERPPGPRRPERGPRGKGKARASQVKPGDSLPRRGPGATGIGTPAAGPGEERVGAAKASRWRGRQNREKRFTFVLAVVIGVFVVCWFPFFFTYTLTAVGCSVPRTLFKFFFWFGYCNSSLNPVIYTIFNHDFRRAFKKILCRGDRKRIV
In words: pKi of test compounds, adrenergic receptor Alpha2A.

The next assay addresses 5HT1E (Homo sapiens, UniProt P28566). The experiment in a line: pKi of test compounds, 5HT1E receptor.
The target in a further assay is T5, D4 receptor (Homo sapiens, UniProt P21917).
T5 sequence (P21917 1-419): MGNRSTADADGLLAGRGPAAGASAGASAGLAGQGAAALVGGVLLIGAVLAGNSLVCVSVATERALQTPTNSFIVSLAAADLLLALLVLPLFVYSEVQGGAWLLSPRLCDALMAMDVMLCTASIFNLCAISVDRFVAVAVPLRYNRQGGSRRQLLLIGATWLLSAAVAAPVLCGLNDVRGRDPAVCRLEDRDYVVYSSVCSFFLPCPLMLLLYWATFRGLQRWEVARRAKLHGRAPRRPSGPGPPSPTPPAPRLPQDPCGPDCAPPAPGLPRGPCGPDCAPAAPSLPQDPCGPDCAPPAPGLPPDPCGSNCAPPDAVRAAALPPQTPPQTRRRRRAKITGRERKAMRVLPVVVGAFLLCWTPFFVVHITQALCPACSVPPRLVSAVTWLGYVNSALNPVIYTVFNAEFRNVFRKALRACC
The experiment in a line: pKi of test compounds, D4 receptor.

A further assay concerns the target 5HT1D (Homo sapiens, UniProt P28221). The experiment in a line: pKi of test compounds, 5HT1D receptor.
A further assay has as its target 5HT1B (Homo sapiens, UniProt P28222). In words: pKi of test compounds, 5HT1B receptor.
The target in the next assay is 5HT2B (Homo sapiens, UniProt P41595). The experiment in a line: pKi of test compounds, 5HT2B receptor.
Sequence of 5HT2B (P41595 whole entry, species assumed): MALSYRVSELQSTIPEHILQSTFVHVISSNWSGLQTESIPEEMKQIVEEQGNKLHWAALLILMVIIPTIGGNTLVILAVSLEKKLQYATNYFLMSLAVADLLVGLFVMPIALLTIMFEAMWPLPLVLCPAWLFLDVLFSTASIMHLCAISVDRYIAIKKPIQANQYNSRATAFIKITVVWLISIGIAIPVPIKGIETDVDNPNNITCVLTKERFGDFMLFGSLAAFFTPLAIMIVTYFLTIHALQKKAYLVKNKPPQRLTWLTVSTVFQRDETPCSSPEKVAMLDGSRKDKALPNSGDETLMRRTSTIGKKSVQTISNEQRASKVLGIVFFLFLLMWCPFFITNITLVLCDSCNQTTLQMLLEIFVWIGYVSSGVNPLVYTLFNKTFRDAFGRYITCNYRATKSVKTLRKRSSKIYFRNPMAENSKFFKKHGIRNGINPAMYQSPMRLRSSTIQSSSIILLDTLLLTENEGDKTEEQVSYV
A further assay has as its target Beta2 (Homo sapiens, UniProt P07550). In words: pKi of test compounds, adrenergic receptor Beta2.
The next assay concerns the target Beta1 (Homo sapiens, UniProt P08588). In words: pKi of test compounds, adrenergic receptor Beta1.
The next assay addresses 5HT7rat (Rattus norvegicus, UniProt P32305). In words: pKi of test compounds, 5HT7 receptor.
For the next assay, the target named is 5HT6rat (Rattus norvegicus, UniProt P31388). The experiment in a line: pKi of test compounds, 5HT6 receptor.
Sequence of 5HT6rat (P31388 whole entry): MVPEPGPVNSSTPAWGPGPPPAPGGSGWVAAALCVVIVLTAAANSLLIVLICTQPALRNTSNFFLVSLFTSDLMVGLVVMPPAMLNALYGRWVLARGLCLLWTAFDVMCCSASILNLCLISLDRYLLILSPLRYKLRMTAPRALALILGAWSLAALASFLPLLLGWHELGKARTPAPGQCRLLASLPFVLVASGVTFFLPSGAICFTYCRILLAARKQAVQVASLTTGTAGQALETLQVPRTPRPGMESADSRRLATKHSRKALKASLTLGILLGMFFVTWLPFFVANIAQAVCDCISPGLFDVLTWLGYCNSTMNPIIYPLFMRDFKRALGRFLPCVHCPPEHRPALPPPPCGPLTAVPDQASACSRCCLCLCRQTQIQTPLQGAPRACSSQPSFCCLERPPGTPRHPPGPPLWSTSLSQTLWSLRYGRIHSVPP
The mark [1] stands for this setting: D4, read-out: pKi D4 (converted).
Where [2] appears, read: read-out: pKi 5HT1D (converted).

Sequence of D1 (P21728 whole entry): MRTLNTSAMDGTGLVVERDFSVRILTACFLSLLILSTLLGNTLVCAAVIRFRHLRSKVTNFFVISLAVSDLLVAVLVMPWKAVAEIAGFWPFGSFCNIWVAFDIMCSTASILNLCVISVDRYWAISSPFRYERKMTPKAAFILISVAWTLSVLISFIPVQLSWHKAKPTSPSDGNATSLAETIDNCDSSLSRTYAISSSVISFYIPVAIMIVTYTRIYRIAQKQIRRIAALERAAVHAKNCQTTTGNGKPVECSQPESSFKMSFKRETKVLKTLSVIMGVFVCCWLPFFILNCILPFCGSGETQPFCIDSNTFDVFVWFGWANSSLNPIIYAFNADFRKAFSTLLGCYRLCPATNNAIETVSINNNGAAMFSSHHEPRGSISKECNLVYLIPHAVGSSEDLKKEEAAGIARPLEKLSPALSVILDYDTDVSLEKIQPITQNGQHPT
Sequence of 5HT1B (P28222 whole entry, species assumed): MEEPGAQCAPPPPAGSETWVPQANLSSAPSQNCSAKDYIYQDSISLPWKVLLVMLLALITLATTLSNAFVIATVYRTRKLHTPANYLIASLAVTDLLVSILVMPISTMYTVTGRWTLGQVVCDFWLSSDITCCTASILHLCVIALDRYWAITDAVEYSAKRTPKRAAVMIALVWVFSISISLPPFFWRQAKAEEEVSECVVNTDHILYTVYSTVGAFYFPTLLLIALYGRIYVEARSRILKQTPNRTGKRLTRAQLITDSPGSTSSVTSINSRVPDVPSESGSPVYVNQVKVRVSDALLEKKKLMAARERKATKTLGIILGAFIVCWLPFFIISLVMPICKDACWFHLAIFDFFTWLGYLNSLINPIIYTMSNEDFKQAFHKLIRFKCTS
Sequence of D3 (P35462 whole entry): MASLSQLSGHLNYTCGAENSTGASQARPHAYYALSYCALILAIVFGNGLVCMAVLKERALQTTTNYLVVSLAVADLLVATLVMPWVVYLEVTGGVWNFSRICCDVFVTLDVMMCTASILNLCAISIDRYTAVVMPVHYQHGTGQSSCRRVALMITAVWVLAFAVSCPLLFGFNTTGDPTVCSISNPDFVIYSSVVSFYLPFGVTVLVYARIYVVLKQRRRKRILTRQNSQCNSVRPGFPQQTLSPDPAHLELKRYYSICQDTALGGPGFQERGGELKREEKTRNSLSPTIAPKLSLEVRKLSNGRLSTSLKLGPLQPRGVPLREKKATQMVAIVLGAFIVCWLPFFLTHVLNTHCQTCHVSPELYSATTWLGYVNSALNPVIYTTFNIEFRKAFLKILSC
Sequence of 5HT1E (P28566 whole entry, species assumed): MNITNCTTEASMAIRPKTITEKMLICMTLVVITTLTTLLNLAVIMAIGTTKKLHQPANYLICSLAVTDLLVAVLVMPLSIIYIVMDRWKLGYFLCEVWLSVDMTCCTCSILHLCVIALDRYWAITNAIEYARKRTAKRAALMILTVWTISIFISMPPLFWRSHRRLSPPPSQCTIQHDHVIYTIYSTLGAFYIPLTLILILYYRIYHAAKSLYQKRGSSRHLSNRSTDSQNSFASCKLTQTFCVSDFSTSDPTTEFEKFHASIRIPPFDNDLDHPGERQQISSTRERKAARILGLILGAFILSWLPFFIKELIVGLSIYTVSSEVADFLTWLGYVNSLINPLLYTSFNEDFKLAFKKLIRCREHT
Sequence of 5HT1D (P28221 whole entry, species assumed): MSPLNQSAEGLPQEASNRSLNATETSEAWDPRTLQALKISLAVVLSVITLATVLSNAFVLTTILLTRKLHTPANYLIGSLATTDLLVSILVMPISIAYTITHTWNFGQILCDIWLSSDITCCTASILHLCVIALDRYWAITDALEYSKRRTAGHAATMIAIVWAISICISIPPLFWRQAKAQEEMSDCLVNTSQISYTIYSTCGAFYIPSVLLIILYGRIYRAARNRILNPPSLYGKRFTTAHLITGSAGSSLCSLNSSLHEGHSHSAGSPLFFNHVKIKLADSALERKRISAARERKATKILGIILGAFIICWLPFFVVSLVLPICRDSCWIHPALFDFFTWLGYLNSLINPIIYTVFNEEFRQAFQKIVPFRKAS
Sequence of D2 (P14416 whole entry): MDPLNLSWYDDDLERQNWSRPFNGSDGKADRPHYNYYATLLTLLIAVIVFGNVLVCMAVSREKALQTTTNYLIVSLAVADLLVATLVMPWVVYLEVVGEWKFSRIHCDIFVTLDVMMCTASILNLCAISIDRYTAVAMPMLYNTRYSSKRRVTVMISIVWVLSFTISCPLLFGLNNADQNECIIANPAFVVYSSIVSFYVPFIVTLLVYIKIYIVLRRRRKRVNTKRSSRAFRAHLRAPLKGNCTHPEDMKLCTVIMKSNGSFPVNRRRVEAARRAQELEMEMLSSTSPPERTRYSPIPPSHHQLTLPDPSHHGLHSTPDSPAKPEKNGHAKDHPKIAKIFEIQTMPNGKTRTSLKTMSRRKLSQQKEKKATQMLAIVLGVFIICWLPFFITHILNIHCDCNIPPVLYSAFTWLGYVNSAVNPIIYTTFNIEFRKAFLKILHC
Sequence of Beta1 (P08588 whole entry): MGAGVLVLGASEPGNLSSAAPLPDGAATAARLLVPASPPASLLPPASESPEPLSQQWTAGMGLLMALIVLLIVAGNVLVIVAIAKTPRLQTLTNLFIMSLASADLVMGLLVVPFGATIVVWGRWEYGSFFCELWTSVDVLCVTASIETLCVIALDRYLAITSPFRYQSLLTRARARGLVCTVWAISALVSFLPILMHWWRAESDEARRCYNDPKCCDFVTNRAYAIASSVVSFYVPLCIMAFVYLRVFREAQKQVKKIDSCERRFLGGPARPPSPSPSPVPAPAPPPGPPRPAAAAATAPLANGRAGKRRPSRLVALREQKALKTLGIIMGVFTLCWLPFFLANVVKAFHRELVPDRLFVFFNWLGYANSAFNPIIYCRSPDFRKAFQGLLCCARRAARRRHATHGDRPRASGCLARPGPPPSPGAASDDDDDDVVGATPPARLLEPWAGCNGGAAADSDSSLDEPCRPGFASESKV
Sequence of Beta2 (P07550 whole entry): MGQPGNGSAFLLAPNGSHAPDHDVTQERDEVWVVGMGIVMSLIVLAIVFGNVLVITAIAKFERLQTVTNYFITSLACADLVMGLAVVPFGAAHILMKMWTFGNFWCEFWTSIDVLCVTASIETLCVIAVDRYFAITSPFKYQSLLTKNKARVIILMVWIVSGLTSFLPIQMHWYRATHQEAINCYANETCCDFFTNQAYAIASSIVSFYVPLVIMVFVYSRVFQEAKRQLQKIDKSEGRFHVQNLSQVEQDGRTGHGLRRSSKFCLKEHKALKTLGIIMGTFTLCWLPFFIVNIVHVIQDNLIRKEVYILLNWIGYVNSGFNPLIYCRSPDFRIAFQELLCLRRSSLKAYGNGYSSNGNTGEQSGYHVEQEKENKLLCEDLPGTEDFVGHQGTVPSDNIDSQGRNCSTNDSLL

Take `CCNC(=O)N1CCN(CCCC(c2ccc(F)cc2)c2ccc(F)cc2)CC1` [Amperozide]: the Ki on Alpha1A is 10 to 100 nM; on D3 (read-out: pKi D3 (converted)) it was 100 to 1000 nM; at D2 (read-out: pKi D2 (converted)), 100 to 1000 nM; on 5-HT2A receptor, 1 to 10 nM; at D1, 100 to 1000 nM; at 5HT2C, over 1000 nM. In addition, the Ki on 5HT1A and at Alpha2A was over 1000 nM throughout.

As for `O=C1NCN(c2ccccc2)C12CCN(CCCC(c1ccc(F)cc1)c1ccc(F)cc1)CC2` [Fluspirilene], the Ki at 5HT1E was over 1000 nM; on D4 receptor (setting [1]) it was 1 to 10 nM; on 5HT1D (setting [2]), over 1000 nM; on D2 (read-out: pKi D2 (converted)), under 1 nM; at 5HT1B it was over 1000 nM.

As for `OC1(c2ccc(Cl)cc2)CCN(Cc2c[nH]c3ccccc23)CC1` [L741626], the “pKi D3” value at D3 was 7-8. At 5HT1D, the “pKi 5HT1D” value is reported as under 6. Also, the “pKi 5HT2B” value at 5HT2B is recorded as 6-7. The “pKi 5HT1B” value at 5HT1B is under 6. In addition, the “pKi Alpha2A” value at Alpha2A is under 6.

With `Cc1nc2c(C)cccn2c(=O)c1CCN1CCC(c2noc3cc(F)ccc23)CC1` [Ocaperidone], the Ki was 1 to 10 nM at D4 receptor (setting [1]); under 1 nM on Alpha1A; 1 to 10 nM on D3 (read-out: pKi D3 (converted)); under 1 nM on D2 (read-out: pKi D2 (converted)); under 1 nM at 5-HT2A receptor; 10 to 100 nM at D1. Further, the Ki at 5HT2C and on 5HT1A was 10 to 100 nM in each case.

Take `CCN1CCC[C@H]1CNC(=O)c1c(O)c(Cl)cc(Cl)c1OC` [Raciopride]: the Ki at Alpha1A is over 1000 nM; at D3 (read-out: pKi D3 (converted)), 1 to 10 nM; at D1, over 1000 nM; on 5HT2C, over 1000 nM; at 5HT1A it was over 1000 nM; on Alpha2A, over 1000 nM.

On to `O=C1N(CCN2CCC(c3noc4cc(F)ccc34)CC2)CCN1c1ccccc1` [S18327], for which the “pKi D4” value at D4 receptor (D4) was 8-9. Further, the “pKi Alpha1A” value at Alpha1A is recorded as over 9. The “pKi D3” value at D3 was 6-7. Further, the “pKi D2” value on D2 is recorded as 7-8. At 5-HT2A receptor, the “pKi 5-HT2A” value is 8-9. Further, the “pKi D1” value at D1 is 7-8. The “pKi 5HT2C” value at 5HT2C is listed as 6-7. On 5HT1A, the “pKi 5HT1A” value is reported as 7-8. Moreover, the “pKi Alpha2A” value at Alpha2A is given as 6-7.

Consider `N#Cc1ccc2c(c1)[C@H]1CN(CCCCNC(=O)c3ccc(-c4ccccc4)cc3)C[C@@H]1CO2` [S33084], for which the “pKi Alpha1A” value on Alpha1A was 6-7. Also, the “pKi D3” value at D3 is over 9. In addition, on 5HT1D, the “pKi 5HT1D” value is 6-7. In addition, at D2, the “pKi D2” value is recorded as 7-8. Also, the “pKi 5HT2B” value at 5HT2B is 6-7. Further, the “pKi D1” value at D1 was 6-7. On 5HT2C, the “pKi 5HT2C” value is 7-8. In addition, on 5HT1A, the “pKi 5HT1A” value is under 6. For the same compound, the “pKi 5HT1B” value on 5HT1B is on record as 6-7. Moreover, the “pKi Alpha2A” value on Alpha2A is given as under 6.

Regarding `OCCOCCN1CCN(C2=Nc3ccccc3Sc3ccccc32)CC1` [Seroquel], the Ki at 5HT1E is over 1000 nM.

Regarding `O=C1NCCN1CCN1CCC(c2cn(-c3ccc(F)cc3)c3ccc(Cl)cc23)CC1` [Sertindole], the Ki on Alpha1A is under 1 nM; at 5HT1D (setting [2]) it was 10 to 100 nM; on D1 it was 10 to 100 nM; at 5HT1B, 10 to 100 nM.

Take `O=C1CC2(CCCC2)CC(=O)N1CCCCN1CCN(c2nsc3ccccc23)CC1` [Tiospirone]: the Ki at D4 receptor was 1 to 10 nM; at Alpha1A, under 1 nM; on D3, 1 to 10 nM; on D2, 1 to 10 nM; at 5-HT2A receptor, under 1 nM; at Alpha2A, 100 to 1000 nM.

In the case of `COC(=O)[C@@H]1[C@H]2C[C@H]3c4[nH]c5ccccc5c4CCN3C[C@@H]2CC[C@@H]1O` [Yohimbine], the results for the Ki at 5HT1D and on D2 (read-out: pKi D2 (converted)) were 10 to 100 nM and 100 to 1000 nM, respectively.

`O=C1Cc2cc(CCN3CCN(c4nsc5ccccc45)CC3)c(Cl)cc2N1` [Ziprasidone]: the Ki at 5HT1E is 100 to 1000 nM; on 5HT1D (setting [2]) it was 1 to 10 nM; at Beta2, over 1000 nM; at 5HT2B, 1 to 10 nM; at Beta1, over 1000 nM; on 5HT1A, 1 to 10 nM. For the same compound, the Ki is under 1 nM at 5HT1B, 1 to 10 nM on 5HT7rat and 10 to 100 nM on 5HT6rat.

Take `CN(C)CCOC1=Cc2ccccc2Sc2ccc(Cl)cc21` [Zotepine]: the values for the Ki at 5HT1E, at 5HT1D (setting [2]) and on 5HT1B were 100 to 1000 nM, 10 to 100 nM and 10 to 100 nM, respectively.
